# In patent publication US20260232703A1, “USE OF A SYK INHIBITOR FOR THE TREATMENT OF CHEMICAL OR RADIATION INDUCED LUNG INJURY” (Rigel Pharmaceuticals, Inc., priority 2023, published 2026):
# Experiments:
# [1] = Water solubility in aqueous buffer under physiological conditions; type: physicochemical
# [2] = tested on: WAG/RijCmcr rats, leg-out PBI irradiated; test: Leg-out PBI rat model of radiation-induced lung injury (RILI), lung histology; type: in vivo; conditions: 13.5 Gy (female) or 13 Gy (male) leg-out PBI rats; fostamatinib 10 or 20 mg/kg; H&E lung sections, 5-point scale; versus untreated irradiated rats
# Description: Irradiation. Leg-out PBI rat models: WAG/RijCmcr female and male rats are unilaterally irradiated, dorsal to ventral, without the use of anesthetics at 11-12 weeks of age. Irradiations are done between 8-10 am. For leg-out PBI, non-anesthetized rats are immobilized in a plastic jig and irradiated using a […] orthovoltage x-ray system (Precision X-Ray, North Branford, Connecticut). […] Doses can range from 13-14.5 Gy for female rats and 12.5-14.5 Gy for males. During irradiation, each rat is confined to a chamber which allows irradiation of 2 rats simultaneously. One hind limb of each rat is carefully externalized from the chamber and shielded with a 0.25-inch lead block. […] Whole mount lung sections (4 μm thick) are stained with hematoxylin and eosin (H&E) and also stained with tryptase antibody (IMGENEX catalogue #IMG-80250, 1:150) (Gao et al. Radiat Res 179: 465-74; 2013. [PubMed: 23480564]) and five randomly selected fields (20×) of each lung are evaluated. The foamy macrophages, vascular, and alveolar wall thickness are scored as described previously (Medhora et al. Radiat Res 182: 545-55; 2014. [PubMed: 25361399]; Medhora et al. J Radiat Res 56: 248-60; 2015. [PubMed: 25368342]); injury is measured on a 5-point scale and a mean composite lung injury score is calculated. Mast cells are assessed by positive tryptase staining in five randomly selected fields (20×) of each lung. […]
Compound,solubility [1],solubility of phosphate prodrug relative to active drug (Compound 1) ([1]; Compound 4 vs Compound 1),mean composite lung injury score [2]
"COc1cc(Nc2ncc(F)c(Nc3ccc4c(n3)NC(=O)C(C)(C)O4)n2)cc(OC)c1OC [Compound 1, N4-(2,2-Dimethyl-3-oxo-4H-5-pyrid[1,4]oxazin-6-yl)-5-fluoro-N2-(3,4,5-trimethoxyphenyl)-2,4-pyrimidinediamine]",1 to 2 µg/mL,,
COc1cc(Nc2ncc(F)c(Nc3ccc4c(n3)N(COP(=O)(O)O)C(=O)C(C)(C)O4)n2)cc(OC)c1OC [Compound 4],> 5000 µg/mL,approximately 2000 times greater,lower
